Measurements as given in BindingDB's records for doi:10.1016/j.bioorg.2016.09.004 (North-West University, 2016).

Assays:
[1] = molecular target: T1, Amine oxidase [flavin-containing] A (Homo sapiens, UniProt P21397); test: MAO-A and MAO-B Fluorescence Assay; settings: pH 7.4
T1 sequence (P21397 whole entry): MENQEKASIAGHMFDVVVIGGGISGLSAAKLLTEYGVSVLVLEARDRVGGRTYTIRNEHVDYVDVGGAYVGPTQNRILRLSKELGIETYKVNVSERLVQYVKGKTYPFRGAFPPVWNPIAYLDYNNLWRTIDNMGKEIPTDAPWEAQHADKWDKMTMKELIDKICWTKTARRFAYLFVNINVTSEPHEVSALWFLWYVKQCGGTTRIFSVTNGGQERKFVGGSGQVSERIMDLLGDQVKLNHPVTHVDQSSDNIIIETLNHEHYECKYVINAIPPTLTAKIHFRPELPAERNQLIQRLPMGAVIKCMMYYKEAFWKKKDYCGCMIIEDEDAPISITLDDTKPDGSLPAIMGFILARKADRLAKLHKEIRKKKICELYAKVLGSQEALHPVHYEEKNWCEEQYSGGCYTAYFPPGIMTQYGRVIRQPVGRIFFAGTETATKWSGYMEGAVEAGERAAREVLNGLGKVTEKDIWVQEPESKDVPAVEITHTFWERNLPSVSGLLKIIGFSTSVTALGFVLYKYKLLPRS
Method: (§1) Recombinant human MAO-A and MAO-B were used for these studies and kynuramine served as enzyme substrate. Kynuramine is oxidised by both MAO isoforms to yield 4-hydroxyquinoline as ultimate product. For the enzyme reactions MAO-A (0.0075 mg/mL) or MAO-B (0.015 mg/mL), the substrate (50 μM) and the test inhibitors (0.003-100 μM) were combined and incubated for 20 min. For this purpose potassium phosphate buffer (pH 7.4, 100 mM) served as solvent. At endpoint the reactions were alkalinised (NaOH) and the fluorescence intensity of 4-hydroxyquinoline was measured (kex = 310 nm; kem = 400 nm).

[2] = molecular target: T2, Amine oxidase [flavin-containing] B (Homo sapiens, UniProt P27338); test: MAO-A and MAO-B Fluorescence Assay; settings: pH 7.4
T2 sequence (P27338 whole entry): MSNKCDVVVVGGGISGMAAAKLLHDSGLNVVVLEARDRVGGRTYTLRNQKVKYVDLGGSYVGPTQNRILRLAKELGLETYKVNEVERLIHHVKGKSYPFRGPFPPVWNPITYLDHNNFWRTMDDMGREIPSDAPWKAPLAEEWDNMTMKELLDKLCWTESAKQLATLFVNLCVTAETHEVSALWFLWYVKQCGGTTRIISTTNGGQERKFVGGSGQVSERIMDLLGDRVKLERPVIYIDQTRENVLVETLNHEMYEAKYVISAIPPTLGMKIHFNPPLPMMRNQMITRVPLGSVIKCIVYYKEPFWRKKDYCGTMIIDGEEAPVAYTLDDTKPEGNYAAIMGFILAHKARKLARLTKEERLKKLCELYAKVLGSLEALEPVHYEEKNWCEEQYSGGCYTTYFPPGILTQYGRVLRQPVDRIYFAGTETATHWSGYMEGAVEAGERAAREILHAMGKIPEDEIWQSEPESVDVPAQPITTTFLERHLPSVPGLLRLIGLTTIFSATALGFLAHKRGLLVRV
Method: as §1

SMILES: O=C1/C(=C/c2cccnc2)Cc2ccccc21 [(2E)-2-(Pyridin-3-ylmethylidene)-2,3-dihydro-1H-inden-1-one (11a)]
- IC50 [1]: 0.061 µM
- IC50 [2]: 1.27 µM

SMILES: COc1ccc2c(c1)C/C(=C\c1ccco1)C2=O [(2E)-2-(Furan-2-ylmethylidene)-5-methoxy-2,3-dihydro-1Hinden-1-one (11g)]
- IC50 [1]: 2.33 µM
- IC50 [2]: 0.394 µM

SMILES: COc1ccc2c(c1)C/C(=C\c1ccc(C)o1)C2=O [(2E)-5-Methoxy-2-[(5-methylfuran-2-yl)methylidene]-2,3-dihydro-1H-inden-1-one (11n)]
- IC50 [1]: 4.73 µM
- IC50 [2]: 0.026 µM

SMILES: COc1ccc2c(c1)C/C(=C\c1cccnc1)C2=O [(2E)-5-Methoxy-2-(pyridin-3-ylmethylidene)-2,3-dihydro-1Hinden-1-one (11b)]
- IC50 [1]: 8.55 µM
- IC50 [2]: 0.338 µM

SMILES: O=C1/C(=C/c2ccccn2)Cc2ccccc21 [(2E)-2-(Pyridin-2-ylmethylidene)-2,3-dihydro-1H-inden-1-one (11c)]
- IC50 [1]: 0.853 µM
- IC50 [2]: 1.53 µM

SMILES: COc1ccc2c(c1)C/C(=C\C1CCCCC1)C2=O [(2E)-2-(Cyclohexylmethylidene)-5-methoxy-2,3-dihydro-1Hinden-1-one (11m)]
- IC50 [2]: 0.139 µM

SMILES: COc1ccc2c(c1)C/C(=C\c1cccs1)C2=O [(2E)-5-Methoxy-2-(thiophen-2-ylmethylidene)-2,3-dihydro-1H-inden-1-one (11i)]
- IC50 [1]: 5.18 µM
- IC50 [2]: 0.114 µM

SMILES: O=C1/C(=C/c2cccs2)Cc2ccccc21 [(2E)-2-(Thiophen-2-ylmethylidene)-2,3-dihydro-1H-inden-1-one (11h)]
- IC50 [1]: 1.33 µM
- IC50 [2]: 0.418 µM

SMILES: COc1ccc2c(c1)C/C(=C\c1ccccn1)C2=O [(2E)-5-Methoxy-2-(pyridin-2-ylmethylidene)-2,3-dihydro-1Hinden-1-one (11d)]
- IC50 [1]: 0.302 µM
- IC50 [2]: 0.112 µM

SMILES: O=C1/C(=C/C2CCCCC2)Cc2ccccc21 [(2E)-2-(Cyclohexylmethylidene)-2,3-dihydro-1H-inden-1-one (11l)]
- IC50 [1]: 5.21 µM
- IC50 [2]: 0.229 µM

SMILES: O=C1/C(=C/c2ccsc2)Cc2ccccc21 [(2E)-2-(Thiophen-3-ylmethylidene)-2,3-dihydro-1H-inden-1-one (11k)]
- IC50 [1]: 1.51 µM
- IC50 [2]: 0.114 µM

SMILES: COc1ccc2c(c1)C/C(=C\c1ccc(Br)o1)C2=O [(2E)-2-[(5-Bromofuran-2-yl)methylidene]-5-methoxy-2,3-dihydro-1H-inden-1-one (11o)]
- IC50 [1]: 0.183 µM
- IC50 [2]: 0.0044 µM

SMILES: O=C1/C(=C/c2ccco2)Cc2ccccc21
- IC50 [1]: 1.2 µM
- IC50 [2]: 0.889 µM

SMILES: O=C1/C(=C/c2cccnc2Cl)Cc2ccccc21 [(2E)-2-[(2-Chloropyridin-3-yl)methylidene]-2,3-dihydro-1Hinden-1-one (11e)]
- IC50 [1]: 0.471 µM
- IC50 [2]: 0.465 µM
